# Source: patent US6503709B1, “Methods for rapidly detecting methicillin resistant staphylococci” (priority 1997, dated 2003)
# {Fluorescein} = fluorescein label; {Biotin} = biotin label; d = 2'-deoxy (DNA); r = 2'-OH (RNA)
# Legend:
# mecA 227 bp amplicon = assay: PCR followed by CPT-EIA detection of amplicon; format: biochemical, Staphylococcus aureus
# Experimental: Crude lysates of MSSA (ATCC 11632) and MRSA (ATCC 33592) strains were grown overnight at 37° C. on tryptic soy agar with 5% sheep blood (PML Microbiologicals, Tualatin, Oreg.). A cell suspension was made in TES buffer (20 mM TES (pH 6.8), 0.05% Triton X-100) to obtain a cell density equivalent to a 5×McFarland#5 standard of turbidity (7.5×10^9 cells/ml). The cells were lysed with 150 U/ml achromopeptidase (Wako ) for 25 min at 37° C. After lysis, the cells were stored at −20° C. Adequate dilutions were made in deionized sterile water.
# The PCR reaction was carried out in a 25 μl reaction containing 20 mM Tris,(pH 8.3) 1.5 MM MgCl2 0.2 mM dNTPs (Pharmacia), 6.25 pmol of each primer (Table 1) and 0.5 U AmpliTaq Gold (Perkin Elmer). The PTC-100 Programmable Thermal Cycler (MJ Research, Inc.) was used with the following PCR program: 95° C. for 10 min., 20×(94° C. for 40 s, 53° C. for 40 s and 72° C. for 1.5 min). The reaction was submitted to a final extension step at 72° C. for 5 min. and then held at 4° C. prior to analysis. PCR reactions were analyzed by CPT as described below or using a 2% agarose gel and ethidium bromide (Et-Br) staining.
# The 227 bp mecA PCR product was used as a standard to determine the sensitivity of CPT-EIA and Et-Br stained gels. The amplicon was prepared as follows: several 100 μl reactions were subjected to 30 cycle PCR and the amplicon was purified using a Qiagen PCR purification kit as recommended by the manufacturer. The 227 bp product was quantified by spectrophometer and used as a standard.
# CPT-EIA. The 25 μl PCR reaction was heat denatured at 95° C. for 2 min and then placed at 54° C. The CPT components in 25 μl were added to the PCR reaction to give a CPT reaction volume of 50 μl. […]
# mecA gene [1] = assay: Non-isotopic CPT assay (CPT-EIA) on crude lysates of clinical isolates; format: biochemical, Staphylococcus aureus; conditions: n = 51, subtractive CPT assay
# From the text: The non-isotopic MRSA Assay which combines CPT with an enzyme immunoassay (CPT-EIA) is schematically illustrated in FIG. 3. This Rapid MRSA Test uses a fluoresceinated and biotinylated chimeric probe which provides an RNase H sensitive scissile linkage when bound to the complementary base sequence of the mecA gene. The uncleaved probe (mecA negative) is detected by binding of the probe to a solid surface and attachment of an antibody conjugated with horse radish peroxidase, which converts a substrate to a colored end product. Cleavage of the probe (mecA positive) prevents binding of the probe-antibody complex to the solid surface thus preventing formation of the colored end product. A result is generated in 90 minutes.
# Effective lysis of both MRSA and MSSA were developed and optimized. The composition of the Lysis Reagent is as follows: 200 Units/ml of achromopeptidase (Wako Bioproducts, Wako), 0.02 mg/ml lysostaphin (Sigma, St. Louis, Mo.), 0.05% (v/v) Triton X 100® and 20 mM TES buffer, pH 8.5. […]
# After cycling, 100 μl of Binding Reagent (Peroxidase Stabilizing Buffer, DAKO, Mississauga, ON), sheep polyclonal anti-fluorescein-horse radish peroxidase conjugated antibody (1/750 dilution, NEN, Boston, Mass.) was added to the tubes. […] The plate is read using a Vmax plate reader (Molecular Devices) set at OD of 650 nm (OD650).
# [2] = tested on: borderline oxacillin resistant S. aureus (BORSA) isolates; assay: Disk diffusion, oxacillin in the presence of clavulanic acid; format: cell-based, Staphylococcus aureus
# Experimental: (§1) The crude lysate preparations, probe synthesis, CPT procedure and analyses were carried out as described in Example 4 except that the cells were picked from the TSA blood plate with a 1 μl plastic loop (PML Microbiological, Richmond, BC, Canada) resuspended in 50 μl of 0.05% Triton X-100® in 20 mM TES buffer (pH 6.8) and lysed with the addition of achromopeptidase (Wako Bioproducts) as described in Example 4. The DNA was heat denatured at 95° C. for 5 minutes prior to use. The experiment was carried out as an operator blind study. The isolates were also tested with conventional oxacillin screening agar (PML Microbiological), Kirby-Bauer Disc diffusion, minimal inhibitory concentration (MIC) using E-Test with 4% NaCl Meuller-Hinton and S. aureus were tested with the BBL® Crystal™ MRSA ID test (Beckton Dickinson).
# [3] = tested on: borderline oxacillin resistant S. aureus (BORSA) isolates; assay: Minimal inhibitory concentration (MIC) using E-Test; format: cell-based; conditions: Staphylococcus aureus
# Experimental: as §1
# mecA gene [4] = assay: CPT Direct Fluorescence Assay (CPT-DFA) on crude lysates; format: biochemical, Staphylococcus aureus
# Experimental: Two experiments were carried out for the detection of the mecA gene from clinical isolates using the direct fluorescence assay (DFA) combined with CPT (CPT-DFA). In the first experiment, 58 isolates were screened using a plate reader format, and in the second experiment, 120 isolates were screened using single tube reader format. Briefly, the assay uses a fluoresceinated and biotinylated chimeric probe complementary to a sequence within the mecA gene present in MRSA, but not in MSSA. The probe is labeled with fluorescein at the 5′ end and biotin at the 3′ end. The CPT assay is performed with crude lysate preparations from Staphylococcal cells in the presence of RNase H and the chimeric probe. After the cycling reaction, streptavidin coated magnetic beads are added to bind the uncleaved probe. The supernatant containing the cleaved fragment labeled with fluorescein is separated from the beads using a magnet and the supernatant is transferred to a glass tube or a microtiter plate for fluorescence measurement.
# The source of the fifty-eight clinical isolates were obtained from Cleveland Hospital, Wishard Memorial and Vancouver General Hospital. All MRSA and MSSA cells were prepared and lysed essentially as described in Example 4 except that the lysates were prepared as either 2×McFarland No. 5 standard density or 1 μl loop of cells in 50 μl volume. One μl loop of cells is approximately equivalent to 5×McFarland No. 5 standard.
# The streptavidin coated magnetic beads (Dynal M-280, Oslo, Norway) were prepared by washing two times in an equal volume of TES cycling buffer (4 mM MgCl2, 0.05% Triton X-100®, 20 mM TES, pH 6.8). The beads were then re-suspended in 10 times the original volume with cycling buffer containing NaCl. The diluted beads were added to the reactions containing biotinylated probe to a final concentration of 50 μg of beads/reaction and a final NaCl concentration of 1.5 M. Binding was carried out in a thermomixer (Eppendorf) at 37° C. with mixing at a speed of 13×100 minutes^−, for 10 minutes. The supernatant was then separated from the beads using an MPC magnet (Dynal).
# Probe was detected after binding using the Fluoroskan fluorescence plate reader (Labsystems, Needham. Mass.) by placing the supernatant containing the cleaved probe in a well of MicroFluor ‘U’ black round bottom plate (Dynatech, Chantilly, Va.). To each well containing a sample, 150 μl of 0.22 M DEA pH 10 was added. Any bubbles in the wells were removed using the edge of a Kimwipe (Roswell, Ga.). The plate was scanned in the plate reader with an excitation wavelength of 485 nm, an emission wavelength of 538 nm and a scan/well time of 20×0.1 sec, at room temperature. Similar detection using the Beacon-2000 tube reader (Panvera, Madison, Wis.) was performed, by placing the supernatant containing the probe in a borosilicate glass tube (Kimble, Toledo, Ohio), that contains 11 μl of 2.0 M DEA, pH 10. The samples were then vortexed and the fluorescence intensity was measured using the static mode of the Beacon-2000 instrument. The excitation and emission wavelengths were 485 nm and 515 nm respectively and an average of 10 read cycles at 25° C. was used.
# The assay used a chimeric probe FmecA945-29(XL)4B3 (SEQ ID NO:5) labeled with fluorescein at the 5′ end and three biotin at the 3′ end. Cycling reactions with crude lysate were performed in a 50 PI reaction containing 25 μl of crude lysates. The lysates were denatured at 95° C. for 2 minutes. CPT reaction was carried out and the final conditions were as follows: 1 pmol chimeric probe, 25 μl of crude lysates, 50 μM EDTA, 0.5 mM spermine, 1.5 μg of RNase H in a final reaction volume of 50 μl. All reactions were cycled in a 60° C. water bath, in microcentrifuge tubes (uncapped) for 50 minutes. Reactions were stopped with the addition of an equal volume of diluted beads (50 μg of beads/reaction in Cycling Buffer and NaCl), while still in the water bath. Binding and detection were carried out as described above. […]
# [5] = 58 isolates, Fluoroskan plate reader, relative to culture and PCR resolution
# [6] = 120 isolates, 1 pmol probe, Beacon-2000 tube fluorometer
# [7] = 120 isolates, Beacon-2000 tube fluorometer
compound,measurement,setting,value
"FmecA945-29B (DNA AATAGAGAAAAAGAAAAAAGATGGCAAAG; sugars from the 5' end d13 r4 d12, 5' {Fluorescein}, 3' {Biotin}, backbone and methylation of C not given here; further chemistry not fully specified)",starting MRSA cells whose amplicon CPT-EIA could detect,"mecA 227 bp amplicon; 20 cycle PCR, serial dilution of crude lysates",≥ 100 cells
same,probe cleaved,"mecA 227 bp amplicon; 100 MRSA cell equivalent samples, 20 cycle PCR",80%
same,number of times the target is cycled in CPT,"mecA 227 bp amplicon; 100 MRSA cell equivalents, assuming 100% PCR efficiency (175 amol)",at least 50
same,A650 nm Mean,mecA gene [1]; MRSA clinical isolate lysates,0.053
same,A650 nm Mean,mecA gene [1]; MSSA clinical isolate lysates,0.239
Cc1onc(-c2ccccc2)c1C(=O)N[C@@H]1C(=O)N2[C@@H]1SC(C)(C)[C@@H]2C(=O)O [oxacillin],susceptibility by disk diffusion,[2],susceptible
same,MIC,"[3]; 4 S. aureus isolates lacking mecA, oxacillin agar screen positive",3 to 16 µg/mL
same,MIC,"[3]; additional 31 S. aureus isolates lacking mecA, E test",3 to 12 µg/mL
"FmecA945-29(XL)4B3 (DNA AATAGAGAAAAAGAAAAAAGATGGCAAAG; fluorescein and biotin labels, chimeric DNA/RNA, further chemistry not given here)",sensitivity for detection of the mecA gene,mecA gene [4]; [5],100%
same,specificity for detection of the mecA gene,mecA gene [4]; [5],100%
same,range of fluorescence of MRSA samples,mecA gene [4]; [6],144.2-191.9
same,range of fluorescence of MSSA samples,mecA gene [4]; [6],58.1-101.7 RFU
same,net gap between the highest MSSA sample and the lowest MRSA,mecA gene [4]; [7],42.5 RFU
same,sensitivity,mecA gene [4]; [7],100%
same,specificity,mecA gene [4]; [7],98%
